Source: ChEMBL document CHEMBL4177722, “Small molecule inhibitors of anthrax edema factor” (Bioorg Med Chem Lett, 2018)

Tests used:
[1] = biological target: T1, Calmodulin-sensitive adenylate cyclase (Bacillus anthracis, UniProt P40136); assay: Inactivation of Bacillus anthracis edema factor in presence of CaM incubated for 10 to 240 mins by EnzChek pyrophosphate assay
T1 sequence (P40136 whole entry): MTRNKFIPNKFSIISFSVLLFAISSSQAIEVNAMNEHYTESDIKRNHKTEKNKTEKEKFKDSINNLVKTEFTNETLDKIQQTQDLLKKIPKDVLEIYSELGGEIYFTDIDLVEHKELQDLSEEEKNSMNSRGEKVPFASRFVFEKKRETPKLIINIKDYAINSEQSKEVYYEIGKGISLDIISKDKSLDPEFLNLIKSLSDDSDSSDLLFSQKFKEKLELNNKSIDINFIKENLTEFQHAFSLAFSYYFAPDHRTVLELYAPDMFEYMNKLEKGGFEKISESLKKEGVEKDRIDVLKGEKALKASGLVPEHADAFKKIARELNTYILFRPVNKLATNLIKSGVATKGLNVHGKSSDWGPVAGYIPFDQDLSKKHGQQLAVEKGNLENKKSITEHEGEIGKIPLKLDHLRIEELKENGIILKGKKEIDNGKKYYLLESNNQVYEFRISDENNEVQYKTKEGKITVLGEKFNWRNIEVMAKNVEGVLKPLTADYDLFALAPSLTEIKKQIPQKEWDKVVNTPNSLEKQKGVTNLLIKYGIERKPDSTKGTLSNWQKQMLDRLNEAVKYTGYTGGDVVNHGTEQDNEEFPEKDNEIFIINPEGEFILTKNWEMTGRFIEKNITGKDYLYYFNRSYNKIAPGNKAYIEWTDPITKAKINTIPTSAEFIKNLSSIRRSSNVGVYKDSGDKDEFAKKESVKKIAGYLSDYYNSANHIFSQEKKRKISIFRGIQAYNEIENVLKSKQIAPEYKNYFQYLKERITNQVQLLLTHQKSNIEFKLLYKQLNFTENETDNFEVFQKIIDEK

[2] = (§1) Cytotoxicity against mouse RAW264.7 cells assessed a reduction in cell viability incubated for 24 hrs in presence of 10% FBS by MTT assay; type: cell-based; conditions: RAW264.7 cells
[3] = biological target: T2, Calmodulin-sensitive adenylate cyclase (Bacillus anthracis) (UniProt P40136); assay: Inactivation of Bacillus anthracis edema factor assessed as Kinact/Ki ratio in presence of CaM incubated for 10 to 240 mins by EnzChek pyrophosphate assay relative to FSBA
T2 sequence (whole entry): T1 sequence (P40136 whole entry)

[4] = biological target: T2, Calmodulin-sensitive adenylate cyclase (Bacillus anthracis); assay: Inactivation of Bacillus anthracis edema factor assessed as inactivation rate constant in presence of CaM incubated for 10 to 240 mins by EnzChek pyrophosphate assay
[5] = biological target: T2, Calmodulin-sensitive adenylate cyclase (Bacillus anthracis); assay: Inactivation of Bacillus anthracis edema factor assessed as Kinact/Ki ratio in presence of CaM incubated for 10 to 240 mins by EnzChek pyrophosphate assay
[6] = system: RAW264.7; assay: Cytotoxicity against mouse RAW264.7 cells assessed a reduction in cell viability incubated for 24 hrs in absence of 10% FBS by MTT assay; type: cell-based; conditions: raw264.7, 24 h
[7] = Stability in C57BL/6 mouse plasma assessed as half life at 10 uM by LC-MS method; type: ADME, cell-free, C57B/6
[8] = biological target: T2, Calmodulin-sensitive adenylate cyclase (Bacillus anthracis); assay: Irreversible inactivation of Bacillus anthracis edema factor pre-incubated for 90 mins followed by drug filtration by EnzChek pyrophosphate assay
[9] = biological target: Misshapen-like kinase 1 (Homo sapiens) (UniProt Q8N4C8); assay: Inhibition of human MINK at 10 uM by ADP-Glo kinase assay
[10] = biological target: Mitogen-activated protein kinase 14 (Homo sapiens) (UniProt Q16539); assay: Inhibition of human p38alpha at 10 uM by ADP-Glo kinase assay
[11] = biological target: Casein kinase I isoform alpha (Homo sapiens) (UniProt P48729); assay: Inhibition of human CK1a1 at 10 uM by ADP-Glo kinase assay
[12] = biological target: T3, Inhibitor of nuclear factor kappa-B kinase subunit beta (Homo sapiens) (UniProt O14920); assay: Inhibition of human IKKbeta at 10 uM by ADP-Glo kinase assay
T3 sequence (whole entry): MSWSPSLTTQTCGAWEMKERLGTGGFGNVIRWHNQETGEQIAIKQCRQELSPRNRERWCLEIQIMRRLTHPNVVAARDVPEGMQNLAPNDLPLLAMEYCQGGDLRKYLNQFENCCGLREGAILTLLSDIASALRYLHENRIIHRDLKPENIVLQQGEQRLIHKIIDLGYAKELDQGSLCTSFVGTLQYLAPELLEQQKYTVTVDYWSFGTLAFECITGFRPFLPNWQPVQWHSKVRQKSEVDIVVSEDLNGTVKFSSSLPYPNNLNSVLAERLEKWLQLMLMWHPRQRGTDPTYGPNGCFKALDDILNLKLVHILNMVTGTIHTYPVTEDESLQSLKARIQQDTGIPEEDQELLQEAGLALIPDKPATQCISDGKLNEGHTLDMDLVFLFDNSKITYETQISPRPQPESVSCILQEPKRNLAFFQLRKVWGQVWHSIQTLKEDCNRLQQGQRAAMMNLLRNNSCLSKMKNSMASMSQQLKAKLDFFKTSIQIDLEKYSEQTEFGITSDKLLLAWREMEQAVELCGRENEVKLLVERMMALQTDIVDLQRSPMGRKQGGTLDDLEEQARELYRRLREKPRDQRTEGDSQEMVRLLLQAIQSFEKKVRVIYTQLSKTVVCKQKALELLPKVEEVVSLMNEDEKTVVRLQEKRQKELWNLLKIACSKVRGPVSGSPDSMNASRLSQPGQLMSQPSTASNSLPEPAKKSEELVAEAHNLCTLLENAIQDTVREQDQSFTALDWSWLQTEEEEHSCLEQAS

[13] = biological target: RAC-alpha serine/threonine-protein kinase (Homo sapiens) (UniProt P31749); assay: Inhibition of human AKT1 at 10 uM by ADP-Glo kinase assay
[14] = biological target: Casein kinase I isoform gamma-1 (Homo sapiens) (UniProt Q9HCP0); assay: Inhibition of human CK1g1 at 10 uM by ADP-Glo kinase assay
[15] = biological target: Casein kinase II subunit alpha (Homo sapiens) (UniProt P68400); assay: Inhibition of human CK2a1 at 10 uM by ADP-Glo kinase assay
[16] = system: RAW264.7; assay: as §1; type: cell-based; conditions: raw264.7, 24 h

Mitogen-activated protein kinase 14 (Homo sapiens), sequence (Q16539 whole entry, canonical isoform): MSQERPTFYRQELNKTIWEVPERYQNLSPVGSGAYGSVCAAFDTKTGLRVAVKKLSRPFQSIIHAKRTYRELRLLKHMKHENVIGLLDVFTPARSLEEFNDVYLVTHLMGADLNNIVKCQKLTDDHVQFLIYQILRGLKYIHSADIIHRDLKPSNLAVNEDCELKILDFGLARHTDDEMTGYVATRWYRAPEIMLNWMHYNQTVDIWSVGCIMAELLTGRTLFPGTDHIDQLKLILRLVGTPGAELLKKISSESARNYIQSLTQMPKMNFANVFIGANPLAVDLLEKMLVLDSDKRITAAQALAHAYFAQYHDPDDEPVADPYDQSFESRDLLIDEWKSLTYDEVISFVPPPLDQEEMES
Casein kinase I isoform gamma-1 (Homo sapiens), sequence (Q9HCP0 whole entry, looked up, canonical isoform): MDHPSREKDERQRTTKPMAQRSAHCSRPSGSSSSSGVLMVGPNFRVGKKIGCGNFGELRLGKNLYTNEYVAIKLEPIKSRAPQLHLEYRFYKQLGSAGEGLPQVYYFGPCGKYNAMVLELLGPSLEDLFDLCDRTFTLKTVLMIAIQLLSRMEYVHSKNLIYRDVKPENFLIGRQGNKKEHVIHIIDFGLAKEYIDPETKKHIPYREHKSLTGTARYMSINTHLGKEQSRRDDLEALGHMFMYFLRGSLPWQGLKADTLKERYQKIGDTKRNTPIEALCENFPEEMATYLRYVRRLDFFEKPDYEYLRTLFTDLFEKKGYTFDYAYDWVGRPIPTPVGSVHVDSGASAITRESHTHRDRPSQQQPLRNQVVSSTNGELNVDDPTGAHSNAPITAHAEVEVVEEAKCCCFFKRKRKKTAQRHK
Casein kinase II subunit alpha (Homo sapiens), sequence (P68400 whole entry, looked up): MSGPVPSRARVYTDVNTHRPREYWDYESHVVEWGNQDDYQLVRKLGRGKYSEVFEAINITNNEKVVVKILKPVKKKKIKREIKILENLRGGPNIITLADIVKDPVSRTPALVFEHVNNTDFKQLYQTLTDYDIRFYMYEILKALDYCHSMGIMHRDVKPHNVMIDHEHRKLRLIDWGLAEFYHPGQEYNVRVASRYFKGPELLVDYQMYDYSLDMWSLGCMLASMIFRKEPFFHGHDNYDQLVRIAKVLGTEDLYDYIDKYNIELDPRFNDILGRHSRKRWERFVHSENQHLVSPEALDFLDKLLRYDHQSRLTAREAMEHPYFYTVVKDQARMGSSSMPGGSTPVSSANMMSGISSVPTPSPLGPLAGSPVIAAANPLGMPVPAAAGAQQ
Casein kinase I isoform alpha (Homo sapiens), sequence (P48729 2-337 limits assumed): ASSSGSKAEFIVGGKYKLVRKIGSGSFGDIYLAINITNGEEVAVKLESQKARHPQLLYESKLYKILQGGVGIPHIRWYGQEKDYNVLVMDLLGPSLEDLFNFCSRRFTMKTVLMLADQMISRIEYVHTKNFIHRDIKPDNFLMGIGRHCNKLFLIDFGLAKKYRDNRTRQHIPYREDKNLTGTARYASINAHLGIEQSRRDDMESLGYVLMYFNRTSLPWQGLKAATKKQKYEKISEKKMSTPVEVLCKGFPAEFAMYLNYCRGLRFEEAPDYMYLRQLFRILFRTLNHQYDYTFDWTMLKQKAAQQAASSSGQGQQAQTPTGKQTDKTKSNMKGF
Misshapen-like kinase 1 (Homo sapiens), sequence (Q8N4C8 whole entry, looked up): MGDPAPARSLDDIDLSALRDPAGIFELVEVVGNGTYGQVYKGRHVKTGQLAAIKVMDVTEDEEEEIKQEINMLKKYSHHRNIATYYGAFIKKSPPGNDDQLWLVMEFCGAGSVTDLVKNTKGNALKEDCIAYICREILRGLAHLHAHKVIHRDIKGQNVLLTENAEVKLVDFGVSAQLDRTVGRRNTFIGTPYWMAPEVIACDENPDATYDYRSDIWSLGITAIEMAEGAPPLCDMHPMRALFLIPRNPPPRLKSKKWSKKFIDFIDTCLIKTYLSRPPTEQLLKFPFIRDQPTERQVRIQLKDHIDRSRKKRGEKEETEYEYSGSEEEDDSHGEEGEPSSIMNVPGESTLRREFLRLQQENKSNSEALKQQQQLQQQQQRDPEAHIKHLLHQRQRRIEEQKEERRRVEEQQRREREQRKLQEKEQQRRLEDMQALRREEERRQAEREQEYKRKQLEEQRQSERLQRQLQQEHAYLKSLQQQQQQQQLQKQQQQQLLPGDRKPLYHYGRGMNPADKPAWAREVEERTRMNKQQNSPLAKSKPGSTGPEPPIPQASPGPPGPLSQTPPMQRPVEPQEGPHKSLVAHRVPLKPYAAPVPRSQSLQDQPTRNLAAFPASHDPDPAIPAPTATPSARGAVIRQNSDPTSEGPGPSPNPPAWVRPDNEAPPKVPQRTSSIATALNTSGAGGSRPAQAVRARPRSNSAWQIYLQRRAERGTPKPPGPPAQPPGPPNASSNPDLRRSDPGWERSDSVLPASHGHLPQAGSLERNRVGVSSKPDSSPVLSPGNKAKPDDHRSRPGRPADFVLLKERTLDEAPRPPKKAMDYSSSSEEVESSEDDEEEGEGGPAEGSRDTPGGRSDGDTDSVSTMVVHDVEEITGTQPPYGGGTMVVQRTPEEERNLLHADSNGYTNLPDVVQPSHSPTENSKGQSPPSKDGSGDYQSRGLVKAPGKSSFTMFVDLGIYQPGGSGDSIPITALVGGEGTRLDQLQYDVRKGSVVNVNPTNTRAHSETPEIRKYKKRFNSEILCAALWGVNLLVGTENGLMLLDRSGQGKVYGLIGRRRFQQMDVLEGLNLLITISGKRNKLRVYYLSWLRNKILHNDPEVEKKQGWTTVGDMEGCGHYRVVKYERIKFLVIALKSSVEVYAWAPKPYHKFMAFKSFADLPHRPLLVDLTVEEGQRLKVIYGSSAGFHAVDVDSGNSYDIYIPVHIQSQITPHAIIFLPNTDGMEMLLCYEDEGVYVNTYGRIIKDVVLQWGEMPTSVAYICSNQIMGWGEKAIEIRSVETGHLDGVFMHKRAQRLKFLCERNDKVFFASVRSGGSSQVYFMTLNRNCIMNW
RAC-alpha serine/threonine-protein kinase (Homo sapiens), sequence (P31749 whole entry, canonical isoform): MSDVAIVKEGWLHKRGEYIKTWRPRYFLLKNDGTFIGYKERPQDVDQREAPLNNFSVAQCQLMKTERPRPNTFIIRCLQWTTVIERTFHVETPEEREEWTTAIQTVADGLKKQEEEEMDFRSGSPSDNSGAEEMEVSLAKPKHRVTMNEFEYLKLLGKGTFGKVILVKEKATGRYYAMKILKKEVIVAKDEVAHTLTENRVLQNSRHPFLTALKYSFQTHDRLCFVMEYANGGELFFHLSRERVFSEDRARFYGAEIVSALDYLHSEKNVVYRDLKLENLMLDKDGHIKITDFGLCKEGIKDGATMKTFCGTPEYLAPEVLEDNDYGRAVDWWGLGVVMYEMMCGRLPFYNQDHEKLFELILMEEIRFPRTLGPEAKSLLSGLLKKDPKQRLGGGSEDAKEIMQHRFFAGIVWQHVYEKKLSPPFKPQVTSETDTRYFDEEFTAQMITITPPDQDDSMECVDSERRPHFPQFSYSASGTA

| SMILES | Ki [1] [µM] | CC50 at 24 h [2] [µM] | Ratio [3] | Kinact [4] [min⁻¹] | Ratio [5] | Activity [6] | half-life at 10 µM [7] [h] | inhibition [8] | inhibition [9] [%] | inhibition [10] [%] | inhibition [11] [%] | inhibition [12] [%] | inhibition [13] [%] | inhibition [14] [%] | inhibition [15] [%] | CC50 [16] [µM] |
| --- | --- | --- | --- | --- | --- | --- | --- | --- | --- | --- | --- | --- | --- | --- | --- | --- |
| Nc1ncnc2c1ncn2CCOC(=O)c1ccc(S(=O)(=O)F)cc1 | 25.9 | > 100 | 0.5 | 0.011 | 6.9 | Non-Toxic | – | – | – | – | – | – | – | – | – | – |
| Nc1cc(OCCNCc2ccc(S(=O)(=O)F)cc2)ccn1 | 49.6 | > 100 | 0.7 | 0.029 | 9.6 | Non-Toxic | – | – | – | – | – | – | – | – | – | – |
| CCOC(=O)C1=C[C@]2(CC)CCCN3CCc4c(n1c1ccccc41)[C@@H]32 [VINPOCETINE] | – | – | – | – | – | – | 13.1 | – | – | – | – | – | – | – | – | – |
| Nc1cc(OC2CN(C(=O)c3ccc(S(=O)(=O)F)cc3)C2)ccn1 | 10.9 | – | 0.4 | 0.003 | 4.9 | Non-Toxic | – | – | – | – | – | – | – | – | – | – |
| Cc1nc(N)c2ncn(C3CCN(Cc4ccc(S(=O)(=O)F)cc4)CC3)c2n1 | 14.7 | > 100 | 2.3 | 0.028 | 31.2 | Non-Toxic | – | – | – | – | – | – | – | – | – | – |
| Nc1cc(OCCCNCc2ccc(S(=O)(=O)F)cc2)ccn1 | 222 | > 100 | 0.4 | 0.063 | 4.7 | Non-Toxic | – | – | – | – | – | – | – | – | – | – |
| Nc1cc(OCCNC(=O)c2ccc(S(=O)(=O)F)cc2)ccn1 | 127 | > 100 | 0.3 | 0.028 | 3.6 | Non-Toxic | – | – | – | – | – | – | – | – | – | – |
| Nc1cc(O[C@@H]2CCN(C(=O)c3ccc(S(=O)(=O)F)cc3)C2)ccn1 | 38.9 | – | 0.3 | 0.008 | 3.5 | Non-Toxic | – | – | – | – | – | – | – | – | – | – |
| Nc1cc(OCCCNC(=O)c2ccc(S(=O)(=O)F)cc2)ccn1 | 88.1 | > 100 | 0.6 | 0.043 | 8.1 | Non-Toxic | – | – | – | – | – | – | – | – | – | – |
| Cc1nc(N)c2cnn(C3CCN(C(=O)c4ccc(S(=O)(=O)F)cc4)CC3)c2n1 | 2.1 | > 100 | 43.3 | 0.072 | 581 | Non-Toxic | 1.2 | – | – | – | – | – | – | – | – | – |
| Cc1nc(N)c2cnn(CCCNC(=O)c3ccc(S(=O)(=O)F)cc3)c2n1 | 34.8 | > 100 | 4.3 | 0.121 | 58 | Non-Toxic | – | – | – | – | – | – | – | – | – | – |
| Nc1ncnc2c1ncn2[C@@H]1O[C@H](COC(=O)c2ccc(S(=O)(=O)F)cc2)[C@@H](O)[C@H]1O | 18.4 | > 100 | – | 0.015 | 13.4 | Non-Toxic | – | Dose-dependent effect | – | – | – | – | – | – | – | – |
| Nc1cc(OC2CCN(C(=O)c3ccc(S(=O)(=O)F)cc3)CC2)ccn1 | – | > 100 | 0.4 to 1.4 | 0.049 to 0.069 | 5.8 to 19.3 | Non-Toxic | 0.66 | – | – | – | – | – | – | – | – | – |
| CN[C@@H]1C[C@H]2O[C@@](C)([C@@H]1OC)n1c3ccccc3c3c4c(c5c6ccccc6n2c5c31)C(=O)NC4 | – | – | – | – | – | – | – | – | 98 | 11 | 51 | 64 | 61 | 38 | 64 | – |
| Nc1cc(OCc2ccc(S(=O)(=O)F)cc2)ccn1 | 955 | – | 0.3 | 0.198 | 3.5 | Non-Toxic | – | – | – | – | – | – | – | – | – | 86 |
| Cc1nc(N)cc(OCCNC(=O)c2ccc(S(=O)(=O)F)cc2)n1 | 286 | > 100 | 0.7 | 0.158 | 9.2 | Non-Toxic | – | – | – | – | – | – | – | – | – | – |
| Cc1nc(N)cc(OC2CCN(C(=O)c3ccc(S(=O)(=O)F)cc3)CC2)n1 | 27.6 | > 100 | 5.1 | 0.112 | 67.8 | Non-Toxic | – | – | – | – | – | – | – | – | – | – |
| Cc1cc(OC2CCN(Cc3ccc(S(=O)(=O)F)cc3)CC2)cc(N)n1 | 42.2 | > 100 | 0.6 | 0.02 | 7.9 | Non-Toxic | – | – | – | – | – | – | – | – | – | – |
| Nc1ncnc2c1cnn2C1CCN(C(=O)c2ccc(S(=O)(=O)F)cc2)CC1 | 3.7 | > 100 | 86.7 | 0.26 | 1160 | Non-Toxic | – | – | – | – | – | – | – | – | – | – |
| Nc1ncnc2c1ncn2C1CCN(C(=O)c2ccc(S(=O)(=O)F)cc2)CC1 | 9.4 | > 100 | 1.3 | 0.01 | 18 | Non-Toxic | – | – | – | – | – | – | – | – | – | – |
| Cc1nc(N)c2cnn(C3CCN(Cc4ccc(S(=O)(=O)F)cc4)CC3)c2n1 | 4.6 | > 100 | 14.2 | 0.052 | 190 | Non-Toxic | 1.2 | – | – | – | – | – | – | – | – | – |
| Nc1ncnc2c1ncn2CCCNC(=O)c1ccc(S(=O)(=O)F)cc1 | 37.7 | > 100 | 0.4 | 0.012 | 5.3 | Non-Toxic | – | – | – | – | – | – | – | – | – | – |
| Nc1ncnc2c1ncn2[C@@H]1CCCN(C(=O)c2ccc(S(=O)(=O)F)cc2)C1 | 96.5 | > 100 | 0.5 | 0.039 | 6.7 | Non-Toxic | – | – | – | – | – | – | – | – | – | – |
| Cc1nc(N)c2ncn(C3CCN(C(=O)c4ccc(S(=O)(=O)F)cc4)CC3)c2n1 | 16.5 | > 100 | 4.7 | 0.062 | 62.8 | Non-Toxic | – | – | – | – | – | – | – | – | – | – |
